For the assay, the system named is HIV-1 LAI envelope single-round infectious reporter virus. As to the kind of experiment: Single-round infectious luciferase reporter virus (HIV-1 LAI envelope) infection of MT2 cells. The format is cell-based. The conditions noted are these: Human immunodeficiency virus 1, MT2, 72 h. From the text: • Virus production—Human embryonic Kidney cell line, 293T (HEK 293T), was propagated in Dulbecco's Modified Eagle Medium (Invitrogen, Carlsbad, Calif.) containing 10% fetal bovine serum (FBS, Sigma, St. Louis, Mo.). The human T-cell leukemia cell MT2 (AIDS Research and Reference Reagent Program, Cat. 237) was propagated in RPMI 1640 (Invitrogen, Carlsbad, Calif.) containing 10% fetal bovine serum (FBS, Hyclone, Logan, Utah) • Virus infection—Single-round infectious reporter virus was produced by co-transfecting HEK 293T cells with plasmide expressing the HIV-1 LAI envelope along with a plasmid containing an HIV-1 LAI proviral cDNA with the envelope gene replaced by a firefly luciferase reporter gene (Chen et al., Ref 41). Transfections were performed using lipofectAMINE PLUS reagent as described by the manufacturer (Invitrogen, Carlsbad, Calif.). Experimental Procedure • 1. MT2 cells were plated in black, 384 well plates at a cell density of 5×10^3 cells per well in 25 μl RPMI 1640 containing 10% FBS. • 2. Compound (diluted in dimethylsulfoxide and growth medium) was added to cells at 12.5 μl/well, so that the final assay concentration would be ≦50 nM. • 3. 12.5 μl of single-round infectious reporter virus in Dulbecco's Modified Eagle Medium was added to the plated cells and compound at an approximate multiplicity of infection (MOI) of 0.01, resulting in a final volume of 50 μl per well. • 4. Virus-infected cells were incubated at 37 degrees Celsius in a CO2 incubator and harvested 72 h after infection. • 5. Viral infection was monitored by measuring luciferase expression in the infected cells using a luciferase reporter gene assay kit (Steady-Glo, Promega, Madison, Wis.) as described by the manufacturer. Luciferase activity was then quantified by measuring luminescence using an EnVision Multilabel Plate Readers (PerkinElmer, Waltham, Mass.). • 6. The percent inhibition for each compound was calculated by quantifying the level of luciferase expression in cells infected in the presence of each compound as a percentage of that observed for cells infected in the absence of compound and subtracting such a determined value from 100. • 7. An EC50 provides a method for comparing the antiviral potency of the compounds of this invention. The effective concentration for fifty percent inhibition (EC50) was calculated with the Microsoft Excel Xlfit curve fitting software. For each compound, curves were generated from percent inhibition calculated at 10 different concentrations by using a four parameter logistic model (model 205). Table 1 is the key for the data in Table 2.

Where [1] appears, read: read-out: EC50 Group from Table 1.

Like-named read-outs stand apart in the source and are kept apart here.

A word on the EC50: it is the concentration at which the effect is half-maximal. Consider `Cn1ccnc1C(O)(c1ccccc1)C1CCN(C(=O)C(=O)c2c[nH]c3c(-n4ccnn4)ncc(F)c23)CC1` (centres unmarked) [Compound 2004, 1-(4-fluoro-7-(1H-1,2,3-triazol-1-yl)-1H-pyrrolo[2,3-c]pyridin-3-yl)-2-(4-(hydroxy(1-methyl-1H-imidazol-2-yl)(phenyl)methyl)piperidin-1-yl)ethane-1,2-dione], for which, under setting [1], the EC50 is less than 500 nM. `COc1cnc(-n2cnc(C)n2)c2[nH]cc(C(=O)C(=O)N3CCC(C(c4ccccc4)c4nccn4C)CC3)c12` (centres unmarked) [Compound 2007, 1-(4-methoxy-7-(3-methyl-1H-1,2,4-triazol-1-yl)-1H-pyrrolo[2,3-c]pyridin-3-yl)-2-(4-((1-methyl-1H-imidazol-2-yl)(phenyl)methyl)piperidin-1-yl)ethane-1,2-dione]: under setting [1], the EC50 is less than 500 nM. As to `N#CC(c1ccccc1)C1CCN(C(=O)C(=O)c2c[nH]c3c(-n4ccnn4)ncc(F)c23)CC1` (centres unmarked) [Compound 1008], the EC50 is 0.2 nM. The EC50 under setting [1] is less than 500 nM. In the case of `O=C(C(=O)N1CCC(Cc2ccccc2)CC1)c1c[nH]c2c(-n3ccnn3)ncc(F)c12` [Compound 1006], the EC50 under setting [1] is less than 500 nM.

Regarding `C/C=C(\c1ccccc1)C1CCN(C(=O)C(=O)c2c[nH]c3ccccc23)CC1` [Compound 1003], the EC50 under setting [1] was greater than 500 nM. For `O=C(C(=O)N1CCC(C(=O)c2ccccc2)CC1)c1c[nH]c2ccccc12` [Compound 1001], the response was half-maximal at 3490 nM (EC50). Further, the EC50 under setting [1] was greater than 500 nM. Turning to `C=C(c1ccccc1)C1CCN(C(=O)C(=O)c2c[nH]c3ccccc23)CC1` [Compound 1004], under setting [1], the EC50 was greater than 500 nM. Take `CC(C)=C(c1ccccc1)C1CCN(C(=O)C(=O)c2c[nH]c3ccccc23)CC1` [Compound 1002]: the EC50 under setting [1] is greater than 500 nM. `O=C(C(=O)N1CCC(C(O)(c2ccccc2)c2ccccc2)CC1)c1c[nH]c2c(-n3ccnn3)ncc(F)c12` [Compound 1007]: the EC50 under setting [1] is less than 500 nM. Still for that read-out and setting: the value for `COc1ncc(OC)c2c(C(=O)C(=O)N3CCC4(CC3)CC4(C#N)c3ccccc3)c[nH]c12` (centres unmarked) [Compound 2001, 6-(2-(4,7-dimethoxy-1H-pyrrolo[2,3-c]pyridin-3-yl)-2-oxoacetyl)-1-phenyl-6-azaspiro[2.5]octane-1-carbonitrile] was less than 500 nM; that for `Cn1ccnc1C(c1ccccc1)C1CCN(C(=O)C(=O)c2c[nH]c3c(-n4ccnn4)ncc(F)c23)CC1` (centres unmarked) [Compound 2006, 1-(4-fluoro-7-(1H-1,2,3-triazol-1-yl)-1H-pyrrolo[2,3-c]pyridin-3-yl)-2-(4-((1-methyl-1H-imidazol-2-yl)(phenyl)methyl)piperidin-1-yl)ethane-1,2-dione] was less than 500 nM.

In turn, `COc1cnc(-n2ccnn2)c2[nH]cc(C(=O)C(=O)N3CCC4(CC3)CC4(c3ccccc3)c3nnc(C)o3)c12` (centres unmarked) [Compound 1005] registered an EC50 of 0.75 nM. In addition, the EC50 under setting [1] is less than 500 nM.

`COc1cnc(-n2cnc(C)n2)c2[nH]cc(C(=O)C(=O)N3CCC(C(C#N)c4ccccc4)CC3)c12` (centres unmarked) [Compound 1009]: the EC50 under setting [1] was less than 500 nM. Regarding `COc1cnc(-n2cnc(C)n2)c2[nH]cc(C(=O)C(=O)N3CCC(C(O)(c4ccccc4)c4nccn4C)CC3)c12` (centres unmarked) [Compound 2005, 1-(4-(hydroxy(1-methyl-1H-imidazol-2-yl)(phenyl)methyl)piperidin-1-yl)-2-(4-methoxy-7-(3-methyl-1H-1,2,4-triazol-1-yl)-1H-pyrrolo[2,3-c]pyridin-3-yl)ethane-1,2-dione], the EC50 under setting [1] is less than 500 nM.

On to `N#CC1(c2ccccc2)CC12CCN(C(=O)C(=O)c1c[nH]c3c(-n4ccnn4)ncc(F)c13)CC2` (centres unmarked) [Compound 2002, 6-(2-(4-fluoro-7-(1H-1,2,3-triazol-1-yl)-1H-pyrrolo[2,3-c]pyridin-3-yl)-2-oxoacetyl)-1-phenyl-6-azaspiro[2.5]octane-1-carbonitrile], for which the EC50 under setting [1] is less than 500 nM. Molecule `COc1cnc(-n2cnc(C)n2)c2[nH]cc(C(=O)C(=O)N3CCC4(CC3)CC4(C#N)c3ccccc3)c12` (centres unmarked) [Compound 2003, 6-(2-(4-methoxy-7-(3-methyl-1H-1,2,4-triazol-1-yl)-1H-pyrrolo[2,3-c]pyridin-3-yl)-2-oxoacetyl)-1-phenyl-6-azaspiro[2.5]octane-1-carbonitrile] gave an EC50 of 2.52 nM. In addition, under setting [1], the EC50 was less than 500 nM.

The values above are taken from patent publication US9505752B2, “Piperidine amide derivatives as HIV attachment inhibitors” (priority 2012, dated 2016).
